Key:
[1] = molecular target: human adenosine receptor sub-type A2a (wild type) (Homo sapiens (Human), UniProt P29274); assay: Affinity for human adenosine A2a receptor by surface plasmon resonance (SPR); format: binding
Method: (§1) Affinity for the human adenosine receptor sub-types (A2a, A2b, A1 and A3) was determined by surface plasmon resonance (SPR) using published methodologies (see below for further details).
(§2) Affinity for the human adenosine receptor sub-types (A2a, A2b, A1 and A3) was determined by SPR as described in Aristotelous, T., et al, Methods in Enzymology (2015), Volume 556, Chapter 23, pages 499-525 and Congreve, M., et al, J Med Chem (2012), Vol. 55, pages 1898-1903. The method used was analogous to the method used in Congreve, M., et al (see supplementary page S10) for the A2a receptor, but the wild type receptor was used rather than the proprietary StaR form.

[2] = molecular target: human A2a receptors (HEK 293 transfected) (Homo sapiens (Human), UniProt P29274); assay: Inhibition of cAMP release in HEK-A2aR cells (HTRF, LANCE Ultra cAMP); format: cell-based; details: 3 nM NECA, 10 min
Sequence of human A2a receptors (HEK 293 transfected) (P29274 whole entry): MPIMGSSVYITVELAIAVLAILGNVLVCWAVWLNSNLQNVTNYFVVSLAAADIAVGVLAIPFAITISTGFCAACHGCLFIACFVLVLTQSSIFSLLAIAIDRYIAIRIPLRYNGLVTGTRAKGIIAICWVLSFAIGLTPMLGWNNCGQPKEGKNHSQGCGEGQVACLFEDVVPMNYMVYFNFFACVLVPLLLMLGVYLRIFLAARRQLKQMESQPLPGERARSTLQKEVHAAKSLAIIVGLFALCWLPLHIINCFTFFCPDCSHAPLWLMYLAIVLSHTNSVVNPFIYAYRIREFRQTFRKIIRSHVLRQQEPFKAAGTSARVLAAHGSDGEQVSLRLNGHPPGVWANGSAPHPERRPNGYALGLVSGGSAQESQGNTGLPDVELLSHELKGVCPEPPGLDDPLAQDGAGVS
Method: Functional activity was measured by inhibition of cAMP release in HEK cells (see below for further details).
To screen A2a receptor inhibitors by HTRF technology, about 500 HEK-A2aR cells (HEK 293 transfected with human A2a receptors) were treated with inhibitors in presence of stimulation buffer (1×HBSS, 5 mM HEPES, 0.1% BSA stabilizer, pH 7.4) supplemented with 30 μM phosphodiesterase inhibitor Rolipram (to prevent cAMP degradation). This stimulation was immediately followed by treatment with 3 nM standard A2aR agonist (NECA) for 10 min under gentle shaking at room temperature. After that, inhibition of cAMP release was determined directly using LANCE Ultra cAMP assay (Perkin Elmer TRF0263).
All analysis was performed using GraphPad Prism 7.0 (GraphPad Software, San Diego, USA). Results are given, as EC50 (M).

[3] = molecular target: human adenosine receptor sub-type A1 (Homo sapiens (Human), UniProt P30542); assay: Affinity for human adenosine A1 receptor by SPR; format: binding; details: for IC50: SPR, human A1 receptor; for Relative selectivity for A2a v. A1: from SPR IC50 values, rounded to 2 significant figures
Sequence of human adenosine receptor sub-type A1 (P30542 whole entry): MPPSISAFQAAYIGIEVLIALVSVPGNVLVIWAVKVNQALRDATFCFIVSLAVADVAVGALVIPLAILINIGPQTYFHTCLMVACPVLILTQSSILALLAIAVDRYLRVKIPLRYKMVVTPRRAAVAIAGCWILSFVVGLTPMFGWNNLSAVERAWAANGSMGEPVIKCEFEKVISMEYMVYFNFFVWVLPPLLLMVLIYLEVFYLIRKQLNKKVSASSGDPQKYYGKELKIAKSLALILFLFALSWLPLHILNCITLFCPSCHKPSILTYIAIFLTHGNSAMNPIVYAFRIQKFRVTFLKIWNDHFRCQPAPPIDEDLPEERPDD
Method: as §1, §2

[4] = molecular target: human adenosine receptor sub-type A2b (Homo sapiens (Human), UniProt P29275); assay: Affinity for human adenosine A2b receptor by SPR; format: binding; details: for IC50: SPR, human A2b receptor; for Relative selectivity for A2a v. A2b: from SPR IC50 values, rounded to 2 significant figures
Sequence of human adenosine receptor sub-type A2b (P29275 whole entry): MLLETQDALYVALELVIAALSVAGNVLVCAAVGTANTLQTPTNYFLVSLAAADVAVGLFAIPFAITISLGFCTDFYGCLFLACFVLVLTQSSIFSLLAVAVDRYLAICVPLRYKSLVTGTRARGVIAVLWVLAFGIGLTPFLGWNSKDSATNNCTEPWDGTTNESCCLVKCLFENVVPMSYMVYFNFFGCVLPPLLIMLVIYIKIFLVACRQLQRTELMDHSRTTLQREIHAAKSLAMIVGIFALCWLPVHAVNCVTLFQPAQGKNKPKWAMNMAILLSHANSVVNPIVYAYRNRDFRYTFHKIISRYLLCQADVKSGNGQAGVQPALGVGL
Method: as §1, §2

[5] = molecular target: human adenosine receptor sub-type A3 (Homo sapiens (Human), UniProt P0DMS8); assay: Affinity for human adenosine A3 receptor by SPR; format: binding; details: for IC50: SPR, human A3 receptor; for Relative selectivity for A2a v. A3: from SPR IC50 values, rounded to 2 significant figures
Sequence of human adenosine receptor sub-type A3 (P0DMS8 whole entry): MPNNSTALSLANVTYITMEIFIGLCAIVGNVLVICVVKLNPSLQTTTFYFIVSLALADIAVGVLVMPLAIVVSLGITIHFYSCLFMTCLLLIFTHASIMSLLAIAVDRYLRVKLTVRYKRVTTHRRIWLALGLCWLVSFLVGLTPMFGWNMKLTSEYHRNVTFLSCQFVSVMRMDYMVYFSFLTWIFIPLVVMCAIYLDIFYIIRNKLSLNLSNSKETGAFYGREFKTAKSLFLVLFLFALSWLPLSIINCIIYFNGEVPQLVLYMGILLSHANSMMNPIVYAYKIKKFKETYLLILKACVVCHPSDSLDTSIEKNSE
Method: as §1, §2

Sequence of human adenosine receptor sub-type A2a (wild type) (P29274 whole entry): as the sequence (P29274 whole entry) above

Row | Compound | IC50 [1] [nM] | EC50 [2] [nM] | further results
1 | COc1cccc(Cn2cc3c(N)nc(-c4cnccn4)nc3n2)c1 [Example 2, 2-[(3-methoxyphenyl)methyl]-6-(pyrazin-2-yl)-2H-pyrazolo[3,4-d]pyrimidin-4-amine] | 6.7 | 1530 | 
2 | Nc1nc(-c2cnccn2)nc2nn(Cc3cccc(O)c3)cc12 [Example 3, 3-{[4-amino-6-(pyrazin-2-yl)-2H-pyrazolo[3,4-d]pyrimidin-2-yl]methyl}phenol] | 41 |  | 
3 | COc1cccc(Cn2cc3c(N)nc(-c4ncco4)nc3n2)c1 [Example 4, 2-[(3-methoxyphenyl)methyl]-6-(1,3-oxazol-2-yl)-2H-pyrazolo[3,4-d]pyrimidin-4-amine] | 4.9 | 400 | 
4 | COc1cccc(Cn2cc3c(N)nc(-c4nc(C)cs4)nc3n2)c1 [Example 5, 2-[(3-methoxyphenyl)methyl]-6-(4-methyl-1,3-thiazol-2-yl)-2H-pyrazolo[3,4-d]pyrimidin-4-amine] | 47 |  | 
5 | COc1cccc(Cn2cc3c(N)nc(-c4cc(C)no4)nc3n2)c1 [Example 6, 2-[(3-methoxyphenyl)methyl]-6-(3-methyl-1,2-oxazol-5-yl)-2H-pyrazolo[3,4-d]pyrimidin-4-amine] | 162 |  | 
6 | COc1cccc(Cn2cc3c(N)nc(-c4snnc4C)nc3n2)c1 [Example 7, 2-[(3-methoxyphenyl)methyl]-6-(4-methyl-1,2,3-thiadiazol-5-yl)-2H-pyrazolo[3,4-d]pyrimidin-4-amine] | 24 |  | 
7 | COc1cccc(Cn2cc3c(N)nc(-c4cscn4)nc3n2)c1 [Example 9, 2-[(3-methoxyphenyl)methyl]-6-(1,3-thiazol-4-yl)-2H-pyrazolo[3,4-d]pyrimidin-4-amine] | 41 | 875 | 
8 | COc1cccc(Cn2cc3c(N)nc(-c4ccsn4)nc3n2)c1 [Example 10, 2-[(3-methoxyphenyl)methyl]-6-(1,2-thiazol-3-yl)-2H-pyrazolo[3,4-d]pyrimidin-4-amine] | 5.1 | 235 | IC50 [3]: 680 nM; Relative selectivity for A2a v. A1 [3]: 130; IC50 [4]: 690 nM; Relative selectivity for A2a v. A2b [4]: 140; IC50 [5]: 60000 nM; Relative selectivity for A2a v. A3 [5]: 12000
9 | Cc1ccc(Cn2cc3c(N)nc(-c4cnccn4)nc3n2)cc1 [Example 12, 2-[(4-methylphenyl)methyl]-6-(pyrazin-2-yl)-2H-pyrazolo[3,4-d]pyrimidin-4-amine] | 7.9 | 199 | IC50 [3]: 7300 nM; Relative selectivity for A2a v. A1 [3]: 920; IC50 [4]: 9000 nM; Relative selectivity for A2a v. A2b [4]: 1100; IC50 [5]: 38800 nM; Relative selectivity for A2a v. A3 [5]: 4900
10 | Cc1ccc(Cn2cc3c(N)nc(-c4ccsn4)nc3n2)cc1 [Example 13, 2-[(4-methylphenyl)methyl]-6-(1,2-thiazol-3-yl)-2H-pyrazolo[3,4-d]pyrimidin-4-amine] | 15 | 128 | 
11 | Cc1ccc(Cn2cc3c(N)nc(-c4nccs4)nc3n2)cc1 [Example 14, 2-[(4-methylphenyl)methyl]-6-(1,3-thiazol-2-yl)-2H-pyrazolo[3,4-d]pyrimidin-4-amine] | 14 | 54 | 
12 | COc1ccc(Cn2cc3c(N)nc(-c4cnccn4)nc3n2)cc1 [Example 15, 2-[(4-methoxyphenyl)methyl]-6-(pyrazin-2-yl)-2H-pyrazolo[3,4-d]pyrimidin-4-amine] | 253 |  | 
13 | Nc1nc(-c2ccsn2)nc2nn(Cc3cccc(OC(F)(F)F)c3)cc12 [Example 16, 6-(1,2-thiazol-3-yl)-2-{[3-(trifluoromethoxy)phenyl]methyl}-2H-pyrazolo[3,4-d]pyrimidin-4-amine] | 8.3 | 9 | 
14 | Nc1nc(-c2ccsn2)nc2nn(Cc3ccc(C(F)(F)F)cc3)cc12 [Example 17, 6-(1,2-thiazol-3-yl)-2-{[4-(trifluoromethyl)phenyl]methyl}-2H-pyrazolo[3,4-d]pyrimidin-4-amine] | 54 | 226 | 
15 | COc1cc(Cn2cc3c(N)nc(-c4ccsn4)nc3n2)ccc1C [Example 18, 2-[(3-methoxy-4-methylphenyl)methyl]-6-(1,2-thiazol-3-yl)-2H-pyrazolo[3,4-d]pyrimidin-4-amine] | 18 | 218 | 
16 | Nc1nc(-c2ccsn2)nc2nn(Cc3cc(Cl)ccc3Cl)cc12 [Example 20, 2-[(2,5-dichlorophenyl)methyl]-6-(1,2-thiazol-3-yl)-2H-pyrazolo[3,4-d]pyrimidin-4-amine] | 13 | 145 | 

Row | Compound | IC50 [1] [nM] | EC50 [2] [nM] | further results
17 | Cc1ccc(Cn2cc3c(N)nc(-c4ccsn4)nc3n2)cc1C [Example 21, 2-[(3,4-dimethylphenyl)methyl]-6-(1,2-thiazol-3-yl)-2H-pyrazolo[3,4-d]pyrimidin-4-amine] | 5 | 4 | 
18 | Nc1nc(-c2ccsn2)nc2nn(Cc3ccccn3)cc12 [Example 22, 2-[(pyridin-2-yl)methyl]-6-(1,2-thiazol-3-yl)-2H-pyrazolo[3,4-d]pyrimidin-4-amine] | 27 |  | 
19 | Cc1ccc(Cn2cc3c(N)nc(-c4ccsn4)nc3n2)cn1 [Example 23, 2-[(6-methylpyridin-3-yl)methyl]-6-(1,2-thiazol-3-yl)-2H-pyrazolo[3,4-d]pyrimidin-4-amine] | 29 |  | 
20 | COc1cc(C)ccc1Cn1cc2c(N)nc(-c3ccsn3)nc2n1 [Example 25, 2-[(2-methoxy-4-methylphenyl)methyl]-6-(1,2-thiazol-3-yl)-2H-pyrazolo[3,4-d]pyrimidin-4-amine] | 18 | 407 | 
21 | Cc1cccc(Cn2cc3c(N)nc(-c4ncco4)nc3n2)c1 [Example 26, 2-[(3-methylphenyl)methyl]-6-(1,3-oxazol-2-yl)-2H-pyrazolo[3,4-d]pyrimidin-4-amine] | 2.8 | 123 | 
22 | Nc1nc(-c2cnccn2)nc2nn(Cc3cccc(C(F)(F)F)c3)cc12 [Example 28, 6-(pyrazin-2-yl)-2-{[3-(trifluoromethyl)phenyl]methyl}-2H-pyrazolo[3,4-d]pyrimidin-4-amine] | 3.2 | 13 | 
23 | Nc1nc(-c2ccsn2)nc2nn(Cc3cccc(F)c3)cc12 [Example 29, 2-[(3-fluorophenyl)methyl]-6-(1,2-thiazol-3-yl)-2H-pyrazolo[3,4-d]pyrimidin-4-amine] | 15 | 118 | 
24 | Nc1nc(-c2cnccn2)nc2nn(Cc3cccc(F)c3)cc12 [Example 30, 2-[(3-fluorophenyl)methyl]-6-(pyrazin-2-yl)-2H-pyrazolo[3,4-d]pyrimidin-4-amine] | 8 | 232 | 
25 | Cc1ccccc1Cn1cc2c(N)nc(-c3cnccn3)nc2n1 [Example 31, 2-[(2-methylphenyl)methyl]-6-(pyrazin-2-yl)-2H-pyrazolo[3,4-d]pyrimidin-4-amine] | 5.7 | 56 | 
26 | Cc1ccccc1Cn1cc2c(N)nc(-c3ccsn3)nc2n1 [Example 32, 2-[(2-methylphenyl)methyl]-6-(1,2-thiazol-3-yl)-2H-pyrazolo[3,4-d]pyrimidin-4-amine] | 10 | 14 | 
27 | Nc1nc(-c2nccs2)nc2nn(Cc3nccs3)cc12 [Example 33, 6-(1,3-thiazol-2-yl)-2-[(1,3-thiazol-2-yl)methyl]-2H-pyrazolo[3,4-d]pyrimidin-4-amine] | 27 | 2160 | 
28 | Nc1nc(-c2ccsn2)nc2nn(Cc3nccs3)cc12 [Example 34, 2-[(1,3-thiazol-2-yl)methyl]-6-(1,2-thiazol-3-yl)-2H-pyrazolo[3,4-d]pyrimidin-4-amine] | 67 |  | 
29 | Nc1nc(-c2cnccn2)nc2nn(Cc3cccc(Cl)c3)cc12 [Example 36, 2-[(3-chlorophenyl)methyl]-6-(pyrazin-2-yl)-2H-pyrazolo[3,4-d]pyrimidin-4-amine] | 1.5 | 30 | 
30 | COc1ccccc1Cn1cc2c(N)nc(-c3ncco3)nc2n1 [Example 39, 2-[(2-methoxyphenyl)methyl]-6-(1,3-oxazol-2-yl)-2H-pyrazolo[3,4-d]pyrimidin-4-amine] | 4.3 | 213 | 
31 | Nc1nc(-c2ccsn2)nc2nn(Cc3cccc(O)c3)cc12 [Example 42, 3-{[4-amino-6-(1,2-thiazol-3-yl)-2H-pyrazolo[3,4-d]pyrimidin-2-yl]methyl}phenol] | 61 |  | 
32 | Nc1nc(-c2ccsn2)nc2nn(Cc3cccc(CO)c3)cc12 [Example 46, [3-[(4-amino-6-(1,2-thiazol-3-yl)-pyrazolo[3,4-d]pyrimidin-2-yl)methyl]phenyl]methanol] | 37 |  | IC50 [3]: > 100000 nM; Relative selectivity for A2a v. A1 [3]: >2700; IC50 [4]: > 100000 nM; Relative selectivity for A2a v. A2b [4]: >2700; IC50 [5]: > 100000 nM; Relative selectivity for A2a v. A3 [5]: >2700

Reference: patent US11786528B2, “Pyrazolopyrimidine compounds as adenosine receptor antagonists” (EXSCIENTIA LTD., priority 2018, dated 2023)
